# Test system: colistin (polymyxin E, or PME) resistant bacterium S. maltophilia
# Assay: Spot test on lawn of colistin resistant bacterium
# Assay type: cell-based
# Conditions: 10 μL spotted, 37° C., 2 days
smiles,measurement,value
O=C([O-])CC(O)(CC(=O)[O-])C(=O)[O-].[Na+].[Na+].[Na+] [Trisodium citrate],activity / kill of S. maltophilia lawn,did not work as well as CTAC

# Reference: patent US20240335402A1, “BIODEGRADABLE ANTI-INFECTIVE FORMULATIONS” (New Mexico Tech University Research Park Corporation, priority 2023, published 2024)
